Bridge positions count the residues as written; N and C are the ends. Square brackets hold non-standard residues; d marks the D form. Peptide text beside a SMILES is read from it. I, II: the chains in the order shown. * marks the point of attachment. Palmitoyl = CCCCCCCCCCCCCCCC(=O)*; PEG3 = NCCOCCOCCOCCC(=O)O; Dap = NC[C@H](N)C(=O)O
System: rat PTMG model using anti-acetylcholine receptor monoclonal antibody (mAb35)
Test: Movement score in rat PTMG model
Format: in vivo
Experimental: (§1) 5-week-old female rats (n=20, LEW/CrlCrlj, 4 weeks old when carried in, Jackson Laboratory Japan) were divided into four groups (Group A, Group B, Group C, and Group D) using body weight measurement results as indexes. Vehicle was administered to Group A, and the test compound MuSK7-pal dissolved in vehicle was administered intravenously to each of Group B (3 mg/kg), Group C (2 mg/kg), and Group D (1 mg/kg) (Day 0). Two hours after intravenous administration, an anti-nicotinic acetylcholine receptor monoclonal antibody (mAb35, National Hospital Organization Nagasaki Kawatana Medical Center) dissolved in PBS (pH 7.4) as a drug for inducing the pathology of myasthenia gravis was administered intraperitoneally to all animals at 200 µg/rat (Day 0). The vehicle, which was a solvent of the compound, was phosphate-buffered saline (PBS) at pH 7.4 containing 20% hydroxypropyl-β-cyclodextrin and 0.02% polysorbate 80 (the same applies to Example 3(2)).
The movement of the animals was evaluated at each time point of 9, 24, 33, 48, 57, and 72 hours (hr) after antibody administration according to six-level evaluation criteria (Score). The evaluation criteria were as follows. • 0: Normal • 1: Reduced grip strength in forelimbs and hindlimbs • 2: Incomplete paralysis of hindlimbs • 3: Complete paralysis of hindlimbs and inability to stand • 4: Moribund • 5: Death
The average score of the rats in each group was calculated. In addition, in a cage in which a rat determined to have a score of 2 or higher was present, crushed transport agar (manufactured by Oriental Yeast Co., Ltd.) and pellet feed were provided.
as §1, with “(n=24,” for “(n=20,”, “(0.5” for “(3”, “(0.25” for “(2”, “(0.1” for “(1”, “0).” for “0). The vehicle, which was a solvent of the compound, was phosphate-buffered saline (PBS) at pH 7.4 containing 20% hydroxypropyl-β-cyclodextrin and 0.02% polysorbate 80 (the same applies to Example 3(2)).”
The movement of the animals was evaluated at each time point of 9, 24, 33, 48, 57, and 72 hours (hr) after antibody administration according to six-level evaluation criteria (Score). The evaluation criteria were the same as those in (1) B above.
5-week-old female rats (LEW/CrlCrlj, 4 weeks old when carried in, Jackson Laboratory Japan) were divided into three groups (Group A, Group B, and Group C) using body weight measurement results as indexes. The test compound (tetramer of Ub012 (EAAAK)3) dissolved in vehicle was administered intravenously to Group A (5 mg/kg) (n=5), the test compound (tetramer of Ub012(ΔGG) (EAAAK)3) dissolved in vehicle was administered intravenously to Group B (5 mg/kg) (n=5), and vehicle was administered intravenously to Group C (n=5), respectively (Day 0). Two hours after intravenous administration, an anti-nicotinic acetylcholine receptor monoclonal antibody (mAb35, National Hospital Organization Nagasaki Kawatana Medical Center) dissolved in PBS (pH 7.4) as a drug for inducing the pathology of myasthenia gravis was administered intraperitoneally to all animals at 200 µg/rat (Day 0).
The movement of the animals was evaluated at each time point of 9, 24, 33, 48, 57, and 72 hours (hr) after antibody administration according to six-level evaluation criteria (Score). The evaluation criteria were the same as those in Example 3(1) B.

SMILES: CCCCCCCCCCCCCCCC(=O)NCCCC[C@H](NC(=O)[C@H](CNC(=O)CCOCCOCCOCCNC(=O)CNC(=O)[C@@H]1CSCC(=O)N[C@H](Cc2ccc(O)cc2)C(=O)N2CCC[C@H]2C(=O)N[C@@H](CO)C(=O)N[C@@H](Cc2ccc(O)cc2)C(=O)N[C@@H](Cc2c[nH]cn2)C(=O)N[C@@H]([C@@H](C)O)C(=O)N[C@@H](CC(N)=O)C(=O)N[C@@H](C(C)C)C(=O)N[C@@H](C(C)C)C(=O)N[C@@H](C)C(=O)N[C@@H](CO)C(=O)N[C@@H](CC(C)C)C(=O)N[C@@H](CCCCN)C(=O)N[C@@H](CCCNC(=N)N)C(=O)N1)NC(=O)CCOCCOCCOCCNC(=O)CNC(=O)[C@@H]1CSCC(=O)N[C@H](Cc2ccc(O)cc2)C(=O)N2CCC[C@H]2C(=O)N[C@@H](CO)C(=O)N[C@@H](Cc2ccc(O)cc2)C(=O)N[C@@H](Cc2c[nH]cn2)C(=O)N[C@@H]([C@@H](C)O)C(=O)N[C@@H](CC(N)=O)C(=O)N[C@@H](C(C)C)C(=O)N[C@@H](C(C)C)C(=O)N[C@@H](C)C(=O)N[C@@H](CO)C(=O)N[C@@H](CC(C)C)C(=O)N[C@@H](CCCCN)C(=O)N[C@@H](CCCNC(=N)N)C(=O)N1)C(N)=O [MuSK7-pal] (I: {CH2CO}-[dY]PSYHTNVVASLKRCG[PEG3][Dap]K(Palmitoyl)-NH2 / II: {CH2CO}-[dY]PSYHTNVVASLKRCG[PEG3]; amide I:18-II:C; thioether I:N-I:15, II:N-II:15)
- movement score (0.1 mg/kg intravenously (Group D, Example 3(2)), not significant vs Group A): the scores remained low compared to the control group
- movement score (0.25 mg/kg intravenously (Group C, Example 3(2)), Dunn's test): significantly lower than those in Group A at all measurement points except at 9 hr and at 57 hr
- movement score (0.5 mg/kg intravenously (Group B, Example 3(2)), Dunn's test): significantly lower than those in Group A at all measurement points after 24 hr
- movement score (1 mg/kg intravenously (Group D, Example 3(1)), all individuals, all measurement points, score 0-5): 0
- movement score (2 mg/kg intravenously (Group C, Example 3(1)), 9 to 72 hr, score 0-5): the scores remained low at all measurement points
- movement score (3 mg/kg intravenously (Group B, Example 3(1)), 9 to 72 hr, score 0-5): the scores remained low at all measurement points

— patent EP4722228A1, “NEW COMPOUND TARGETING MUSK AND USE THEREOF” (The University of Tokyo, priority 2023, dated 2024)
